Data reported in article PMC9150102 (Journal of Medicinal Chemistry, 2022).

Key:
Type in all cases: biochemical, guinea pig
[1] = system: SERCA1 reconstituted with PLN1–32 fragment; experiment: SERCA1 ATPase activity after reconstitution with PLN1-32 fragment; details: 30 to 1000 nM
Protocol: (§1) Data are the mean ± SEM. *p < 0.05 (one-way RM ANOVA plus post hoc Tukey’s multiple comparisons or paired t-test).
(§2) Measurements were performed in cardiac SR microsomes (guinea pig) and in whole tissue homogenates (rat). Cardiac preparations included SERCA2a and PLN. To test for PLN involvement in the effect of compounds, SERCA1 activity was measured in PLN-free microsomes (from guinea pig skeletal muscle) before and after reconstitution with the synthetic PLN1–32 inhibitory fragment at a ratio of 300:1 for PLN/SERCA. […] Either an increase in Vmax (rat) or a decrease in KdCa (increased Ca^2+ affinity) (guinea pig) stands for enhancement of SERCA function.
(§3) (rats). As verified by Western blot, cardiac microsomes preparations included SERCA2a and PLN and skeletal muscle ones included SERCA1 only.
(§4) SERCA stimulation4, compounds were also tested on SERCA1 in microsomes of guinea-pig skeletal muscle (PLN-free) before and after reconstitution with the PLN1-32 inhibitory fragment at a ratio of 300:1 […]
Tissues were homogenized, subjected to centrifugation to obtain SR -enriched microsomes and sarcomeric proteins were extracted, as previously described 4.
(§5) In the case of guinea-pig hearts, LV tissues were homogenized in 4 volumes of 10 mM NaHCO3, 1 mM PMSF, 10 μg/ml aprotinin and leupeptin (pH 7) and centrifuged at 12,000g for 15 minutes. Supernatants were filtered and centrifuged at 100,000 g for 30 min. Contractile proteins were extracted by suspending the pellets with 0.6 M KCl, 30 mM histidine, pH 7 and further centrifugation at 100,000 g for 30 min.
(§6) Final pellets were reconstituted with 0.3 M sucrose, 30 mM histidine, pH 7, to obtain SR-enriched […]
(§7) SERCA2a ATPase activity was measured as the rate of 32P-ATP release at multiple Ca2+ concentrations (100-2000 nM) in the absence and presence of tested compounds, as previously described5. Increasing concentrations of each compound were pre-incubated with 2 μg of cardiac preparations for 5 min at 4° C in 80 μl of a solution containing 100 mM KCl, 5 mM MgCl2, 1 μM A23187, 20 mM Tris, pH 7.5. Then, 20 μl of 5 mM Tris-ATP containing 50 nCi of 32P-ATP (3-10 Ci/mmol, Perkin Elmer) were added. The ATP hydrolysis was continued for 15 min at 37°C and the reaction was stopped by acidification with 100 μl of 20% ice-cold perchloric acid. 32P was separated by centrifugation with activated charcoal (Norit A, Serva) and the radioactivity was measured. SERCA2a-dependent ATPase activity was identified as the portion of total hydrolytic activity inhibited by cyclopiazonic acid (CPA, 10 µM). Technical replicates were used to ensure the reliability of single values.
Reconstitution of SERCA1 with PLN1-32 synthetic fragment
Adult healthy male guinea-pigs were used to prepare SERCA1-enriched SR microsomes from fast-twitch hind leg muscles. Microsomes were prepared as described for SERCA2a preparations. For reconstitution experiments, SERCA1 (PLN-free) was pre-incubated with synthetic PLN1-32 fragment (canine sequence, Biomatik Corporation, Canada) in 20 mM imidazole, pH 7, at 1:300 SERCA1:PLN ratio for 30 min at room temperature. After pre-incubation, SERCA1 (PLN-free) alone, or reconstituted with PLN1-32 […]
fragment, was utilized for SERCA activity measurement by using 32P-ATP hydrolysis method at different

[2] = molecular target: T1, SERCA1 (Cavia porcellus, UniProt H0UXI0); experiment: SERCA1 ATPase activity in PLN-free skeletal muscle microsomes; details: 30 to 1000 nM
T1 construct: from tissue; host or cells: adult male guinea pig fast-twitch hind leg muscle, SR microsomes
Protocol: as §1, §2, §3, §4
SERCA2a ATPase activity was measured as the rate of 32P-ATP release at multiple Ca2+ concentrations (100-2000 nM) in the absence and presence of tested compounds, as previously described5. […] 32P was separated by centrifugation with activated charcoal (Norit A, Serva) and the radioactivity was measured. […]

[3] = molecular target: T2, SERCA2a (Cavia porcellus, UniProt A0A286XFU8); experiment: SERCA2a ATPase activity, Ca2+ dependency in cardiac SR microsomes from healthy guinea pigs; details: for SERCA2a KdCa reduced by / SERCA2a Vmax: 1 nM
T2 construct: from tissue; host or cells: guinea pig left ventricle, SR-enriched microsomes
Protocol: SERCA2a ATPase activity was assessed in SR preparations from healthy guinea pig hearts. Ca^2+ dependency of ATPase activity was measured, and kinetic parameters (KdCa and Vmax) were estimated at compound concentrations of 10 and 100 nM.
[…] […] Data are the mean ± SEM. *p < 0.05 (one-way RM ANOVA plus post hoc Tukey’s multiple comparisons or paired t-test).
as §2, with “function. […]” for “function.”
Left ventricles (LV) were dissected from rat and guinea -pig of healthy and failing preparations and frozen until use. Tissues were homogenized, subjected to centrifugation to obtain SR -enriched microsomes and sarcomeric proteins were extracted, as previously described 4.
as §5, §6
as §7, with “values. […]” for “values.”

T2 sequence (A0A286XFU8 entry or part of it): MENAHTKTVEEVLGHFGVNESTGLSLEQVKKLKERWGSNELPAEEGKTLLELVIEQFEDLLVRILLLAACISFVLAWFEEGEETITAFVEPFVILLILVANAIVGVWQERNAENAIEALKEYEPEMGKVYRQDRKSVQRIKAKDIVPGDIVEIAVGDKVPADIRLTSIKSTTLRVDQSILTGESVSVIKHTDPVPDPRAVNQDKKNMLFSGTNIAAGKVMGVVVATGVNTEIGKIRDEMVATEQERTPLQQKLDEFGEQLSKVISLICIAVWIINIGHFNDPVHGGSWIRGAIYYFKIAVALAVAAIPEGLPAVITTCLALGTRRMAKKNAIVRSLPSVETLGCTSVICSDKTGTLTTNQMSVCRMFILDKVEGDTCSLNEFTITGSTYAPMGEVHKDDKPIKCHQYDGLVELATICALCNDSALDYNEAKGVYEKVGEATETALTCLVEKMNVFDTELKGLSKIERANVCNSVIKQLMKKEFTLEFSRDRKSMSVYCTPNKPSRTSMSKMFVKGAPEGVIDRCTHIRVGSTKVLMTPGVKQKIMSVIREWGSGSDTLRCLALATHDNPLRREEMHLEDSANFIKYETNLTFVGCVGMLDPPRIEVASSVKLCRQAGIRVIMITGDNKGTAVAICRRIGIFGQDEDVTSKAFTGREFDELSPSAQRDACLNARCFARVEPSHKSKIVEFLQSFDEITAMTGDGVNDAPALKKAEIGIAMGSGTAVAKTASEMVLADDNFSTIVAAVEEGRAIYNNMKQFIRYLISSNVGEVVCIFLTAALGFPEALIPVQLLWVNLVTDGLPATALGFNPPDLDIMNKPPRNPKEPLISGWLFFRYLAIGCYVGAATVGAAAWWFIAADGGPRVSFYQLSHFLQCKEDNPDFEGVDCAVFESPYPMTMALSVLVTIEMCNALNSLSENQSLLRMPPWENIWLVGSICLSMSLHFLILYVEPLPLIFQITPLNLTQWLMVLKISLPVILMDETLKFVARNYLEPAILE
T1 sequence (H0UXI0 1-1001): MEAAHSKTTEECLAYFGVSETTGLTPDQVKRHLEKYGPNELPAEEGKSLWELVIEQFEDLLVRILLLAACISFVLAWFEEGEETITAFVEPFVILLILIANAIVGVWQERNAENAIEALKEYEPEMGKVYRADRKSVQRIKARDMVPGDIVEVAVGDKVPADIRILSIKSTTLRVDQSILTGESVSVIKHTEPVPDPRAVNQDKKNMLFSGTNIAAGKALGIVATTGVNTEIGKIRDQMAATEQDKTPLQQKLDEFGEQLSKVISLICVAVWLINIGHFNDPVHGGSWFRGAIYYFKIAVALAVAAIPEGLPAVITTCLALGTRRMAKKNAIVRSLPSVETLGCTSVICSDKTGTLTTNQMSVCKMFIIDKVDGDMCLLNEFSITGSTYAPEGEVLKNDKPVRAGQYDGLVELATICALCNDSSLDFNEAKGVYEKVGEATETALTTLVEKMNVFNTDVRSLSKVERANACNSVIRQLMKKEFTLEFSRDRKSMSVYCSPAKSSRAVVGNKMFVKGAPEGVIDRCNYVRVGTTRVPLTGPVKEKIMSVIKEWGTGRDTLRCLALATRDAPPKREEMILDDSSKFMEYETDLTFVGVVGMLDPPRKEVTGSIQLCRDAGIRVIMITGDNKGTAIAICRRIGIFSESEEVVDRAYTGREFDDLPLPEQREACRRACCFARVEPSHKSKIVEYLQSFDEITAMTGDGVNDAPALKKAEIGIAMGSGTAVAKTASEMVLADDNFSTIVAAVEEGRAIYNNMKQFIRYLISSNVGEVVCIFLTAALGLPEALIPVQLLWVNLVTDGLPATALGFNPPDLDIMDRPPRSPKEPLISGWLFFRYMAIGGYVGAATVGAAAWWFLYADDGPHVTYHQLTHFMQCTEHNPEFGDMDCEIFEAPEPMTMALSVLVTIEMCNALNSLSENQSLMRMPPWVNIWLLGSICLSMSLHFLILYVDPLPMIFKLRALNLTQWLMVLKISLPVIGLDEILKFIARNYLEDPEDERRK

SMILES | SERCA1 KdCa after reconstitution with PLN1–32 [1] | SERCA1 Vmax after reconstitution with PLN1–32 [1] | skeletal SERCA1 activity in the absence of PLN [2] | SERCA2a KdCa reduced by [3] | SERCA2a Vmax [3] | SERCA2a Stimulation @100 nM (DELTA% KdCa) ([3]; 100 nM)
C[C@]12CC[C@H](CC(=O)O)C[C@@H]1[C@@H](O)C[C@@H]1[C@@H]2CC[C@]2(C)C(=O)CC[C@@H]12 [Compound 8] | dose-dependently reversed the PLN-induced shift in KdCa | unchanged | failed to affect | 14% | without affecting Vmax | –
C[C@]12CC[C@H](CCCC(=O)O)C[C@@H]1[C@@H](O)C[C@@H]1[C@@H]2CC[C@]2(C)C(=O)CC[C@@H]12 [Compound 5] | dose-dependently reversed the PLN-induced shift in KdCa | unchanged | failed to affect | 16% | without affecting Vmax | -21%
